The subject of one data set is CT26.DLL3 cells. The experiment in a line: Cell binding (total uptake) of [177Lu]Lu-test peptide, CT26.DLL3 cells. Type of data set: cell-based. As to conditions: 1 hour at 37° C. The essentials: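 CT26.DLL3 cells (5–25 million/condition) in 1% PBSA incubated 1 h at 37°C with [177Lu]Lu-labelled peptide (0.8 μCi in 300 μL), radiolabelled at pH ~5, 80°C. Cells pelleted, washed twice with cold PBS+1% BSA; bound and unbound fractions gamma-counted, uptake binned as ≤25%, 25–50%, >50%.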

The test system of another data set is SHP-77 cells. The data set is described as follows: Cell binding (total uptake) of [177Lu]Lu-test peptide, SHP-77 cells. As to conditions: SHP77 cells, 1 hour at 37° C., bound fraction. The format is cell-based. As to the method:
[^177Lu]LuCl3 was received from venders in HCl solution. For every mCi of [^177Lu]LuCl3 added to the reaction vial (1.5 mL Eppendorf vial), ammonium acetate buffer (0.2 M, pH 4.9, 100 μL, containing 1% w/v ascorbic acid and 6% v/v ethanol) and peptide conjugate (1 nmol). A peptide conjugate of the present disclosure is also referred to herein as a “chelator-peptide”. The pH of the solution was determined to be approximately 5 by using pH strips. The reaction vial was incubated at 80° C., 700 RPM for 17-20 minutes. A sample from the reaction was analyzed by RP-HPLC using an Agilent Infinity II 1260 HPLC to determine reaction completion and radiochemical purity of [^177Lu]Lu-chelator-peptide. HPLC conditions: Waters XBridge BEH C18 Column, 130 Å, 3.5 um, 4.6 mm×250 mm; mobile phase: Solvent A=water (with 0.1% formic acid), solvent B=acetonitrile (with 0.1% formic acid). Gradients: 25-45% B in 10 minutes, 45-65% B in 12 minutes, 65-90% in 6 minutes at a flow rate of 0.5 mL/minute. Required amounts of the product was formulated in 1% PBSA for cell studies.
The study was conducted using SHP-77, CT26.WT, and CT26.DLL3 cells (Table 7) Adherent cell studies: The cells were cultured in appropriate culture media (20 mL) in tissue culture treated T150 flasks at 37° C. and 5% CO2. Adherent cells were detached (60-70% confluent) using 5 mL Versene at 37° C. for 3 minutes. After confirming the viability using countess and count of detached cells using Trypan blue, the cells were centrifuged at 4° C. for 5 minutes (1,000 rpm). The cell pellet obtained was washed once with PBS and resuspended in 1% PBSA to obtain the desired cell concentration (5-25 million cells/mL).
Suspension cell studies: The cells were cultured in appropriate culture media (20 mL) in tissue culture treated T150 flasks at 37° C. and 5% CO2. After confirming the viability and count of detached cells using Trypan blue, the cells were centrifuged at 4° C. for 5 minutes (1,000 rpm). The cell pellet obtained was washed once with PBS and resuspended in 1% PBSA to obtain the desired cell concentration (5-25 million cells/mL).
Cell numbers used for the assay were in the range of 5 million cells/condition −25 million cells/condition.
Total uptake: Cells were incubated with 300 μL (0.8 μCi) of the incubation buffer (containing radiolabeled peptide [^177Lu] Lu-test peptide) for 1 hour at 37° C. (Table 8). Post incubation, the cells were pelleted and washed 2 times using cold PBS+1% BSA. The supernatant and washes were combined and counted together as “unbound fraction” in a gamma counter. The cells were then resuspended in 300 μL of 1% PBS+1% BSA and counted in the gamma counter as “bound fraction”.
In these Tables, “A” represents %≤25; “B” represents 25<%≤50; “C” represents %>50.

Another data set has as its system SHP-77 tumors. The data set is described as follows: Ex vivo biodistribution of radiolabeled peptides in nude mice bearing SHP-77 tumors. The note with it: [177Lu]Lu labelling, nude mice bearing SHP-77 tumors (n = 3), 24 hours post-injection. The essentials: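 Nude mice bearing SHP-77 xenografts (200-400 mm^3) or tumor-naïve mice (5-7 weeks) received an intravenous tail-vein bolus of [^177Lu]Lu-peptide and were euthanized at pre-set time points. Tissues were weighed and gamma-counted, with counts decay-corrected to injection time. Values are % IA/g per tissue from the injected activity of each mouse.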

For the next data set, the target named is T1, human DLL3 (Homo sapiens, UniProt Q9NYJ7).
T1 sequence (Q9NYJ7 27-618): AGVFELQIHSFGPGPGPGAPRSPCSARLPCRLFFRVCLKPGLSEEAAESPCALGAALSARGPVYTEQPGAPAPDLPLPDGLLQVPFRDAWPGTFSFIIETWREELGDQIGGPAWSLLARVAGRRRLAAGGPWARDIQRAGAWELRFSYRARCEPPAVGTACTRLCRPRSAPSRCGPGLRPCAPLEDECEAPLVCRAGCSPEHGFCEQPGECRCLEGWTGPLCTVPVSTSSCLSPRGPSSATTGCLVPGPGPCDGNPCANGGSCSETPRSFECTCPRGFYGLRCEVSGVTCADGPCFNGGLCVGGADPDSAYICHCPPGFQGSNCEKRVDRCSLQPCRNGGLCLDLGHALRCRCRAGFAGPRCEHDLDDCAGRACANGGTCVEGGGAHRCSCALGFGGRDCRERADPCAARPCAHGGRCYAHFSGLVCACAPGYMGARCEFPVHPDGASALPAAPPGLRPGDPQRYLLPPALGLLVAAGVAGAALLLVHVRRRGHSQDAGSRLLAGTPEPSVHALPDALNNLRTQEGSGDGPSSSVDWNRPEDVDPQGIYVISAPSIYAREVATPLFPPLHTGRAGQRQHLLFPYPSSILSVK
The experiment in a line: Affinity determination by Surface Plasmon Resonance (SPR). Type of data set: binding. The note with it: 25° C., biotinylated human DLL3 immobilized on streptavidin sensor chip, 1:1 binding model; read-out: SPR KD. An outline of the steps:
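Kinetic and affinity constants were derived by fitting sensorgrams to a 1:1 binding model. Graded compound concentrations flowed at 100 μL/minute in 20 mM phosphate running buffer with 2% DMSO over streptavidin-immobilized biotinylated human DLL3, reference-subtracted.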

Each structure is given as a SMILES string. Numbered stars: 1 amine (or outer) side, 2 acyl side, 3 side chain; on linkers, the order of the positions; unused ones are H or OH. Bridge positions count the residues as written; N and C are the ends. Square brackets hold non-standard residues; d marks the D form. Peptide text beside a SMILES is read from it. * marks the point of attachment. DOTA = O=C(O)CN1CCN(CC(=O)O)CCN(CC(=O)*)CCN(CC(=O)O)CC1; Phe(4-CF3) = N[C@@H](Cc1ccc(C(F)(F)F)cc1)C(=O)O; Trp(5-F) = N[C@@H](Cc1c[nH]c2ccc(F)cc12)C(=O)O; Trp(7-aza) = N[C@@H](Cc1c[nH]c2ncccc12)C(=O)O; Pro(trans-4-F) = O=C(O)[C@@H]1C[C@@H](F)CN1; 2Nal = N[C@@H](Cc1ccc2ccccc2c1)C(=O)O; Nva(3-Et) = CCC(CC)[C@H](N)C(=O)O; CH2 = C([*:1])[*:2]

As usually defined, the Kd is the free concentration of one partner at which half of the binding sites on the other are occupied at equilibrium, for simple one-to-one binding.

On to `CC[C@H](C)[C@H](NC(=O)[C@@H](NC(=O)[C@H](Cc1c[nH]c2ccccc12)NC(C)=O)[C@@H](C)O)C(=O)N[C@H]1CSSC[C@@H](C(=O)N[C@@H](Cc2c[nH]c3ccccc23)C(=O)N2CCC[C@H]2C(=O)N[C@H](CCCCNC(=O)CN2CCN(CC(=O)O)CCN(CC(=O)O)CCN(CC(=O)O)CC2)C(N)=O)NC(=O)[C@H](CC(=O)O)NC(=O)[C@H](Cc2cnc[nH]2)NC(=O)[C@H](Cc2c[nH]c3ccccc23)NC(=O)[C@H](CC(N)=O)NC(=O)[C@H](CC(N)=O)NC1=O` [compound 23, Ac-W-T-I-C(3)-N-N-W-H-D-C(3)-W-P-[D-Lys(DOTA)]-NH2] (Ac-WTICNNWHDCWP[dK](DOTA)-NH2; disulfide 4-10), for which the “% Binding” value in the data set on CT26.DLL3 cells is on record as “A (%≤25)”. In the data set with SHP-77 cells, the “% Binding” value is “A (%≤25)”. In the data set with SHP-77 tumors, the “kidney uptake (% IA/g)” value is reported as “D (% IA/g > 10 in kidney)” and the “tumor uptake (% IA/g)” value was “A (0 < % IA/g ≤ 5 in tumor)”. The Kd on human DLL3 lay in the range of 1 to 10 nM.

As to `CC[C@H](C)[C@H](NC(=O)[C@@H](NC(=O)[C@H](Cc1c[nH]c2ccccc12)NC(C)=O)[C@@H](C)O)C(=O)N[C@H]1CSSC[C@@H](C(=O)N[C@@H](Cc2c[nH]c3ccccc23)C(=O)N2CCC[C@H]2C(=O)N[C@@H](CCCCNC(=O)CN2CCN(CC(=O)O)CCN(CC(=O)O)CCN(CC(=O)O)CC2)C(N)=O)NC(=O)[C@H](CC(=O)O)NC(=O)[C@H](Cc2cnc[nH]2)NC(=O)[C@H](Cc2ccc3ccccc3c2)NC(=O)[C@H](CC(N)=O)NC(=O)[C@H](CC(N)=O)NC1=O` [compound 166, Ac-W-T-I-C(3)-N-N-(2Nal)-H-D-C(3)-W-P-[L-Lys(DOTA)]-NH2] (Ac-WTICNN[2Nal]HDCWPK(DOTA)-NH2; disulfide 4-10), in the data set on SHP-77 cells, the “% Binding” value was “A (%≤25)”. Also, the Kd on human DLL3 is less than 1 nM.

`CCC(CC)[C@H](NC(=O)[C@@H](NC(=O)[C@H](Cc1c[nH]c2ccc(F)cc12)NC(C)=O)[C@@H](C)O)C(=O)N[C@H]1CSSC[C@@H](C(=O)N[C@@H](Cc2c[nH]c3ncccc23)C(=O)N2C[C@H](F)C[C@H]2C(=O)N[C@H](CCCCNC(=O)CN2CCN(CC(=O)O)CCN(CC(=O)O)CCN(CC(=O)O)CC2)C(N)=O)NC(=O)[C@H](CC(=O)O)NC(=O)[C@H](Cc2cnc[nH]2)NC(=O)[C@H](Cc2ccc(C(F)(F)F)cc2)NC(=O)[C@H](CC(N)=O)NC(=O)[C@H](CC(N)=O)NC1=O` [compound 146, Ac-(5Fluoro-W)-T-(Env)-C(3)-N-N-(4CF3-F)-H-D-C(3)-(7Aza-W)-(trans4Fluoro-P)-[D-Lys(DOTA)]-NH2] (Ac-[Trp(5-F)]T[Nva(3-Et)]CNN[Phe(4-CF3)]HDC[Trp(7-aza)][Pro(trans-4-F)][dK](DOTA)-NH2; disulfide 4-10): the “% Binding” value with SHP-77 cells was “A (%≤25)”. Further, in the data set with SHP-77 tumors, the “kidney uptake (% IA/g)” value is given as “C (0 < % IA/g ≤ 10 in kidney)” and the “tumor uptake (% IA/g)” value is “A (0 < % IA/g ≤ 5 in tumor)”. At human DLL3, the Kd was less than 1 nM.

Take `CC[C@H](C)[C@H](NC(=O)[C@@H](NC(=O)[C@H](Cc1c[nH]c2ccccc12)NC(C)=O)[C@@H](C)O)C(=O)N[C@H]1CSCSC[C@@H](C(=O)N[C@@H](Cc2c[nH]c3ccccc23)C(=O)N2CCC[C@H]2C(=O)N[C@H](CCCCNC(=O)CN2CCN(CC(=O)O)CCN(CC(=O)O)CCN(CC(=O)O)CC2)C(N)=O)NC(=O)[C@H](CC(=O)O)NC(=O)[C@H](Cc2cnc[nH]2)NC(=O)[C@H](Cc2ccc3ccccc3c2)NC(=O)[C@H](CC(N)=O)NC(=O)[C@H](CC(N)=O)NC1=O` [compound 165, Ac-WTI-C(1)-NN(2Nal)HD-C(1)-WP-[D-Lys(DOTA)]-NH2] (Ac-WTICNN[2Nal]HDCWP[dK](DOTA)-NH2; linker 4-10 via CH2): the “% Binding” value in the data set on SHP-77 cells is recorded as “A (%≤25)”. The Kd at human DLL3 is less than 1 nM.

The values above are taken from patent US20250011368A1, “DLL3 TARGETING PEPTIDES AND CONSTRUCTS THEREOF” (MARIANA ONCOLOGY INC., priority 2023, published 2025).
